Experimental data taken from ChEMBL document CHEMBL1649182, “Binding of faropenem and other beta-lactam agents to penicillin-binding proteins of pneumococci with various beta-lactam susceptibilities” (Antimicrob Agents Chemother, 2009).
Converted amounts (≈) assume the structure as drawn.

Key:
[1] = test system: Streptococcus pneumoniae; experiment: Antimicrobial activity against Streptococcus pneumoniae 1564 by CLSI method; assay type: functional
[2] = test system: Streptococcus pneumoniae; experiment: Antimicrobial activity against penicillin-intermediate Streptococcus pneumoniae 3665 by CLSI method; assay type: functional
[3] = test system: Streptococcus pneumoniae; experiment: Antimicrobial activity against penicillin-sensitive Streptococcus pneumoniae 1076 by CLSI method; assay type: functional
[4] = molecular target: T1, Penicillin-binding protein 1A (Streptococcus pneumoniae serotype 4 (strain ATCC BAA-334 / TIGR4), UniProt Q04707); experiment: Displacement of Biocillin FL from Streptococcus pneumoniae 24 PBP1A
T1 sequence (Q04707 whole entry): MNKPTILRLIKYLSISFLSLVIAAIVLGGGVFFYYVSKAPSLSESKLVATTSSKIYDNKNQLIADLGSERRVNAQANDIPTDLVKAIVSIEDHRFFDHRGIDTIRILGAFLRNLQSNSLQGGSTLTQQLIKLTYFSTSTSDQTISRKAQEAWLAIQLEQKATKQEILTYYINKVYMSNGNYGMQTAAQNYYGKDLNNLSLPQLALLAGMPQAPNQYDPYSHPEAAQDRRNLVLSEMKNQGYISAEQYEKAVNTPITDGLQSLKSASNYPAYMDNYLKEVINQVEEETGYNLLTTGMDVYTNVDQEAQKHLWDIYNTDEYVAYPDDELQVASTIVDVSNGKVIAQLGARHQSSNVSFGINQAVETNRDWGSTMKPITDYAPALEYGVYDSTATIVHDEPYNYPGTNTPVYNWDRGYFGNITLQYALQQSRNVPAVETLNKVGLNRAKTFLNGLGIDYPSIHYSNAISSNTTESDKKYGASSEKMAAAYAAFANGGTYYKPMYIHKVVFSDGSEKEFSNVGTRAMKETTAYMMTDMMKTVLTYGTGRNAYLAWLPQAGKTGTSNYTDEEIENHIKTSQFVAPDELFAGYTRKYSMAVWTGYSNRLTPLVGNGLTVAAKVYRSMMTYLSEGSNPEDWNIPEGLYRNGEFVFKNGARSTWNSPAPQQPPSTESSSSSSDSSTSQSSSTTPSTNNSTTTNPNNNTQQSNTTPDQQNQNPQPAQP

[5] = molecular target: T1, Penicillin-binding protein 1A; experiment: Displacement of Biocillin FL from Streptococcus pneumoniae 3413 PBP1A
[6] = molecular target: T1, Penicillin-binding protein 1A; experiment: Displacement of Biocillin FL from Streptococcus pneumoniae 3676 PBP1A
[7] = Displacement of Biocillin FL from Streptococcus pneumoniae 3009 PBP1B
[8] = Displacement of Biocillin FL from Streptococcus pneumoniae 1077 PBP1B
[9] = Displacement of Biocillin FL from Streptococcus pneumoniae 24 PBP2X
[10] = molecular target: T2, Penicillin-binding protein 2x (Streptococcus pneumoniae serotype 4 (strain ATCC BAA-334 / TIGR4), UniProt P14677); experiment: Displacement of Biocillin FL from Streptococcus pneumoniae 1076 PBP2X
T2 sequence (P14677 whole entry): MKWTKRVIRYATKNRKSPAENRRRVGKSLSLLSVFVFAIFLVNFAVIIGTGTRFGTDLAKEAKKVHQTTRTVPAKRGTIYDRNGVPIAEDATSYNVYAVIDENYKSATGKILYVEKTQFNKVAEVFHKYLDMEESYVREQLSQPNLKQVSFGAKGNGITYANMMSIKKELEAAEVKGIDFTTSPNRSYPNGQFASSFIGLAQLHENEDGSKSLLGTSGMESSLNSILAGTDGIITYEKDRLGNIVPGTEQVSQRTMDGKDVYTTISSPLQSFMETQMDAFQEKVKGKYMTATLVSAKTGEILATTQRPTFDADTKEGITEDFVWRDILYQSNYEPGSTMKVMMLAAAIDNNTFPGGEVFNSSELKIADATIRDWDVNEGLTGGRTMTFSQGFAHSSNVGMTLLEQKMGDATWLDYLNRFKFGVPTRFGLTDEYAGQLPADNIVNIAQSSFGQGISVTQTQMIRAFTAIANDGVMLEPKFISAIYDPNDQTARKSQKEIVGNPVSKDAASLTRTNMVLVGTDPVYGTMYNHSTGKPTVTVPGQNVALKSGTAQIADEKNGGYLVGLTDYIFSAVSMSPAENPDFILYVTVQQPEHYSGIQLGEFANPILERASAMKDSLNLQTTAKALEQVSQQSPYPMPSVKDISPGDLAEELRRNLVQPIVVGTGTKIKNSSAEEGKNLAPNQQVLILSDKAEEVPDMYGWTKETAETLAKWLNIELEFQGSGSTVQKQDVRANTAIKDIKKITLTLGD

[11] = Displacement of Biocillin FL from Streptococcus pneumoniae 3413 PBP2A
[12] = Displacement of Biocillin FL from Streptococcus pneumoniae 3676 PBP2A
[13] = Displacement of Biocillin FL from Streptococcus pneumoniae 3665 PBP2A
[14] = Displacement of Biocillin FL from Streptococcus pneumoniae 1076 PBP2A
[15] = molecular target: T3, Penicillin-binding protein 2B (Streptococcus pneumoniae serotype 4 (strain ATCC BAA-334 / TIGR4), UniProt P0A3M5); experiment: Displacement of Biocillin FL from Streptococcus pneumoniae 24 PBP2B
T3 sequence (P0A3M5 whole entry): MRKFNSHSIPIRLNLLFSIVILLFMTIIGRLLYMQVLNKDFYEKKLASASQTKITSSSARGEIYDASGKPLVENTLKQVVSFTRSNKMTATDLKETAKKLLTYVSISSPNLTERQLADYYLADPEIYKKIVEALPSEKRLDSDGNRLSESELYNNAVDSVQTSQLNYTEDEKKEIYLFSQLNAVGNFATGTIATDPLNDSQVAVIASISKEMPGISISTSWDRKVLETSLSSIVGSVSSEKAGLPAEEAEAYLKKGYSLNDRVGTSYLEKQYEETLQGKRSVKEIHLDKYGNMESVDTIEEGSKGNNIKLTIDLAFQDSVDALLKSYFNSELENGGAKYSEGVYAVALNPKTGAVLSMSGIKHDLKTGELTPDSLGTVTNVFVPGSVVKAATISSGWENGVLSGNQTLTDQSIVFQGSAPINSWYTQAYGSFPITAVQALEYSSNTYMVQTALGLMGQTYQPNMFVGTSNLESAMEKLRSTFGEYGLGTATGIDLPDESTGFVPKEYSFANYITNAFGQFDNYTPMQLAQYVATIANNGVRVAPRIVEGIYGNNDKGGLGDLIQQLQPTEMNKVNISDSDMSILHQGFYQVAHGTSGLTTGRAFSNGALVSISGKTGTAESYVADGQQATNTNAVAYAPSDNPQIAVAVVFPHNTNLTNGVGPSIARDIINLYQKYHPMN

[16] = molecular target: T3, Penicillin-binding protein 2B; experiment: Displacement of Biocillin FL from Streptococcus pneumoniae 3413 PBP2B
[17] = molecular target: T3, Penicillin-binding protein 2B; experiment: Displacement of Biocillin FL from Streptococcus pneumoniae 2527 PBP2B
[18] = molecular target: T3, Penicillin-binding protein 2B; experiment: Displacement of Biocillin FL from Streptococcus pneumoniae 3243 PBP2B
[19] = molecular target: T3, Penicillin-binding protein 2B; experiment: Displacement of Biocillin FL from Streptococcus pneumoniae 1076 PBP2B
[20] = Displacement of Biocillin FL from Streptococcus pneumoniae 3413 PBP3
[21] = Displacement of Biocillin FL from Streptococcus pneumoniae 1077 PBP3

Row | Compound | MIC [1] [µg/mL] | MIC [2] [µg/mL] | MIC [3] [µg/mL] | IC50 [4] [nM] | IC50 [5] [nM] | IC50 [6] [nM] | IC50 [7] [µg/mL] | IC50 [8] [µg/mL] | IC50 [9] [µg/mL] | IC50 [10] [nM] | IC50 [11] [µg/mL] | IC50 [12] [µg/mL] | IC50 [13] [µg/mL] | IC50 [14] [µg/mL] | IC50 [15] [nM] | IC50 [16] [nM] | IC50 [17] [nM] | IC50 [18] [nM] | IC50 [19] [nM] | IC50 [20] [µg/mL] | also measured
1 | C[C@@H](O)[C@H]1C(=O)N2C(C(=O)O)=C(SCCNC=N)C[C@H]12 [IMIPENEM ANHYDROUS] | 0.125 (≈ 0.418 µM) | 0.03 (≈ 0.1 µM) | 0.008 (≈ 0.0267 µM) | 1470 | 2070 | 838 | 0.009 (≈ 0.0301 µM) | 0.106 (≈ 0.354 µM) | 2.048 (≈ 6.84 µM) | 197 | 0.337 (≈ 1.13 µM) | 0.115 (≈ 0.384 µM) | 0.233 (≈ 0.778 µM) | 0.054 (≈ 0.18 µM) | 441 | 2890 | 207 | 220 | 237 | 0.195 (≈ 0.651 µM) | IC50 [21]: 0.219 µg/mL (≈ 0.732 µM)
2 | CC1(C)S[C@@H]2[C@H](NC(=O)[C@H](N)c3ccc(O)cc3)C(=O)N2[C@H]1C(=O)O [AMOXICILLIN] | 4 (≈ 10.9 µM) | 0.125 (≈ 0.342 µM) | 0.016 (≈ 0.0438 µM) | 10.9 | 339 | 1150 | 0.059 (≈ 0.161 µM) | 0.006 (≈ 0.0164 µM) | 0.117 (≈ 0.32 µM) | 101 | 0.034 (≈ 0.093 µM) | 0.066 (≈ 0.181 µM) | 0.05 (≈ 0.137 µM) | 0.08 (≈ 0.219 µM) | 482 | 452 | 90.3 | 79.4 | 151 | 0.029 (≈ 0.0794 µM) | IC50 [21]: 0.022 µg/mL (≈ 0.0602 µM)
3 | C[C@@H](O)[C@H]1C(=O)N2C(C(=O)O)=C([C@H]3CCCO3)S[C@H]12 [FAROPENEM] | 0.03 (≈ 0.105 µM) | 0.125 (≈ 0.438 µM) | 0.03 (≈ 0.105 µM) | 31.5 | 56.1 | 87.6 | 0.002 (≈ 0.00701 µM) | 0.005 (≈ 0.0175 µM) | 0.758 (≈ 2.66 µM) | 221 | 0.007 (≈ 0.0245 µM) | 0.053 (≈ 0.186 µM) | 0.015 (≈ 0.0526 µM) | 0.035 (≈ 0.123 µM) | 116 | 498 | 35 | 45.6 | 45.6 | 0.003 (≈ 0.0105 µM) | IC50 [21]: 0.006 µg/mL (≈ 0.021 µM)
4 | CC1(C)S[C@@H]2[C@H](NC(=O)Cc3ccccc3)C(=O)N2[C@H]1C(=O)O [PENICILLIN G] | 16 (≈ 47.8 µM) | 0.125 (≈ 0.374 µM) | 0.03 (≈ 0.0897 µM) | 23.9 | 59.8 | 35.9 | 0.001 (≈ 0.00299 µM) | 0.005 (≈ 0.015 µM) | 0.323 (≈ 0.966 µM) | 29.9 | 0.015 (≈ 0.0449 µM) | 0.013 (≈ 0.0389 µM) | 0.016 (≈ 0.0478 µM) | 0.02 (≈ 0.0598 µM) | 332 | 532 | 287 | 182 | 179 | 0.01 (≈ 0.0299 µM) | IC50 [21]: 0.01 µg/mL (≈ 0.0299 µM)
5 | CO/N=C(\C(=O)N[C@@H]1C(=O)N2C(C(=O)O)=C(COC(N)=O)CS[C@H]12)c1ccco1 [CEFUROXIME] | 8 (≈ 18.9 µM) | 0.125 (≈ 0.295 µM) | 0.03 (≈ 0.0707 µM) | 9.43 | 2.36 | 18.9 | 0.024 (≈ 0.0566 µM) | 0.008 (≈ 0.0189 µM) | 0.198 (≈ 0.467 µM) | 4.71 | 0.002 (≈ 0.00471 µM) | 0.011 (≈ 0.0259 µM) | 0.009 (≈ 0.0212 µM) | 0.004 (≈ 0.00943 µM) | 89.5 | 1.18 | 6230 | 54.2 | 403 | 0.004 (≈ 0.00943 µM) | IC50 [21]: 0.071 µg/mL (≈ 0.167 µM)
